Here are results for 4 compounds from the NIST ThermoML archive (doi:10.1021/je500116z).

Numbers after ± are expanded uncertainties.

The conditions of one data set: 288.15 K; Liquid; Ebulliometric method (Recirculating still).
As usually defined, the vapor or sublimation pressure is the pressure of vapour in equilibrium with the condensed phase. For the compound `CC(C)CCl` [1-chloro-2-methylpropane], the “vapor or sublimation pressure” value is reported as 13 ± 0.097 kPa.
On the same count and under the same terms, in the case of `CC(C)(C)Cl` [2-chloro-2-methylpropane] it was 26.42 ± 0.16 kPa; in that of `CCC(C)Cl` (configuration not stated) [2-chlorobutane], 13.36 ± 0.099 kPa; in that of `CCCCCC` [hexane], 12.89 ± 0.097 kPa.

Staying with this data set, now noted: 298.15 K; Liquid; Ebulliometric method (Recirculating still).
With `CC(C)CCl` [1-chloro-2-methylpropane], the “vapor or sublimation pressure” value came to 20.35 ± 0.13 kPa.
In the case of `CC(C)(C)Cl` [2-chloro-2-methylpropane], the “vapor or sublimation pressure” value is 40.13 ± 0.22 kPa.
In the case of `CCC(C)Cl` (configuration not stated) [2-chlorobutane], the “vapor or sublimation pressure” value was 20.91 ± 0.13 kPa.
The same measure, in the same setting: in the case of `CCCCCC` [hexane] it was 20.22 ± 0.13 kPa.

The data set is the same for the next values; noted with them: 308.15 K; Liquid; Ebulliometric method (Recirculating still).
Consider `CC(C)CCl` [1-chloro-2-methylpropane], for which the “vapor or sublimation pressure” value is recorded as 30.45 ± 0.17 kPa.
Take `CC(C)(C)Cl` [2-chloro-2-methylpropane]: the “vapor or sublimation pressure” value is 59.52 ± 0.3 kPa.
For the compound `CCC(C)Cl` (configuration not stated) [2-chlorobutane], the “vapor or sublimation pressure” value turned out to be 31.55 ± 0.18 kPa.
`CCCCCC` [hexane]: the “vapor or sublimation pressure” value was determined as 30.7 ± 0.17 kPa.
